Tests used:
Assay in all cases: Multiple ascending dose study: bone marker, percent change from baseline
Format in all cases: in vivo, human
[1] = system: serum bone-specific alkaline phosphatase; settings: for change from baseline in bone-specific alkaline phosphatase (least squares mean): 300 mg BID
Text: (§1) Each bone marker (serum bone-specific alkaline phosphatase and osteocalcin, urinary N-terminal telopeptide of type I collagen) is expressed as percentage change from baseline and analyzed. To assess influence of potential outliers on the bone marker data analyses, the following analysis can be conducted first. Potential outliers are identified as outside an interval consistent with a normal distribution defined as (median±3.5 standard deviations [SD]) for each dosing regimen and day combination. The SD is a pooled estimate across all dosing regimen and day combinations, each estimated by the scaled inter-quartile range 0.75 (Q75-Q25). Explicitly, for each dosing regimen and day combination, its SD denoted by SDi is estimated by its scaled inter-quartile range 0.75 (Q75-Q25). The overall SD is estimated as
(§2) Then, the (percent change from baseline) values are analyzed with a mixed effect model, with treatment (dosing regimen), day, and treatment-by-day interaction effects considered fixed and subject considered random. Baseline value is not included as a covariate. The model is fit separately to each group of cohorts (Cohorts 1-3 and 5). For Cohorts 1-3, days of interest are day 7 and day 14. For Cohort 5, days of interest are day 10 and day 17. For each group of cohorts, compound symmetry is assumed, and Restricted Maximum Likelihood Estimates are used. The least squares means (LSMeans) and 95% confidence intervals (CI) are obtained for each treatment and day combination. Within each treatment, LSMean percent changes from baseline at each post-dosing day (i.e., day 7 and day 14 for Cohorts 1-3, and day 10 and day 17 for Cohort 5) are obtained, along with their 95% CIs. In addition, for each post-dosing day, differences of the LSMean percent changes from baseline between active dosed regimen and placebo are obtained. The p-values comparing these differences from placebo are obtained using t-tests. No adjustments are made for multiple comparisons. […] If outliers are identified, additional mixed model analyses using the same mixed effect modeling as detailed above are to be conducted excluding the outliers. […] Individual percent-change-from-baseline profile versus time plots are plotted by treatment regimen.

osteocalcin = system: osteocalcin
Text: as §1, §2

[2] = system: urinary N-terminal telopeptide of type I collagen
Text: as §1, §2

[3] = 50 mg, 14-day oral administration, healthy adults, post-dosing day 7
[4] = 50 mg, 14-day oral administration, healthy adults, post-dosing day 14
[5] = 150 mg, 14-day oral administration, healthy adults, post-dosing day 7
[6] = 150 mg, 14-day oral administration, healthy adults, post-dosing day 14
[7] = 250 mg, 17-day oral administration, elderly with minor renal impairment, post-dosing day 10
[8] = 250 mg, 17-day oral administration, elderly with minor renal impairment, post-dosing day 17
[9] = 300 mg, 14-day oral administration, healthy adults, post-dosing day 7
[10] = 300 mg, 14-day oral administration, healthy adults, post-dosing day 14
[11] = elderly subjects, 250 mg BID versus placebo

CCc1nc2c(C)nc(C)cc2n1-c1ccc(CCNC(=O)NS(=O)(=O)c2ccc(C)cc2)cc1 [Grapiprant, N-((4-(2-ethyl-4,6-dimethyl-1H-imidazo[4,5-c]pyridin-1-yl)phenethyl)carbamoyl)-4-methylbenzenesulfonamide]
LS Mean Difference in bone-specific alkaline phosphatase [1, 3]: about −8.62%
LS Mean Difference in bone-specific alkaline phosphatase [1, 4]: about 7.16%
LS Mean Difference in bone-specific alkaline phosphatase [1, 5]: about 4.76%
LS Mean Difference in bone-specific alkaline phosphatase [1, 6]: about 1.23%
LS Mean Difference in bone-specific alkaline phosphatase [1, 7]: about −1.75%
LS Mean Difference in bone-specific alkaline phosphatase [1, 8]: about 3.88%
change from baseline in bone-specific alkaline phosphatase (least squares mean) ([1]; Day 7, healthy subjects, placebo 4.70%, p=0.020): 20.80%
change from baseline in bone-specific alkaline phosphatase (least squares mean) ([1]; Day 14, healthy subjects, placebo −5.36%, p=0.006): 14.36%
LS Mean Difference (of percent change from baseline) in bone-specific alkaline phosphatase [1, 9]: about 16.10%
LS Mean Difference in bone-specific alkaline phosphatase [1, 10]: about 19.72%
bone marker difference between treatment groups [1, 11]: no statistically significant differences
change from baseline in osteocalcin (least squares mean) (osteocalcin; 50 mg BID, Day 7, healthy subjects, placebo 39.30%, p=0.023): 1.40%
LS Mean change in blood osteocalcin (osteocalcin; [3]): about −37.90%
LS Mean change in blood osteocalcin (osteocalcin; [4]): about −13.58%
LS Mean change in blood osteocalcin (osteocalcin; [5]): about −31.02%
LS Mean change in blood osteocalcin (osteocalcin; [6]): about −10.29%
LS Mean change in blood osteocalcin (osteocalcin; [7]): about −5.91%
LS Mean change in blood osteocalcin (osteocalcin; [8]): about −3.96%
change from baseline in osteocalcin (least squares mean) (osteocalcin; 300 mg BID, Day 14, healthy subjects, placebo 47.84%, p=0.045): 14.37%
LS Mean change in blood osteocalcin (osteocalcin; [9]): about −10.30%
LS Mean change in blood osteocalcin (osteocalcin; [10]): about −33.47%
bone marker difference between treatment groups (osteocalcin; [11]): no statistically significant differences
LS Mean change in N-telopeptide of type I collagen [2, 3]: about 14.77%
LS Mean change in N-telopeptide of type I collagen [2, 4]: about −23.50%
change from baseline in urine N-telopeptide (least squares mean) ([2]; 150 mg BID, Day 14, healthy subjects, placebo 34.74%, p=0.050): −3.97%
LS Mean change in N-telopeptide of type I collagen [2, 5]: about −9.78%
LS Mean change in N-telopeptide of type I collagen [2, 6]: about −38.72%
LS Mean change in N-telopeptide of type I collagen [2, 7]: about −9.62%
LS Mean change in N-telopeptide of type I collagen [2, 8]: about −16.76%
LS Mean change in N-telopeptide of type I collagen [2, 9]: about 12.69%
LS Mean change in N-telopeptide of type I collagen [2, 10]: about −21.33%
bone marker difference between treatment groups [2, 11]: no statistically significant differences
